Reference: US20260076372A1, “SPRAYABLE ANTIFUNGAL COMPOSITION FOR USE IN THE FIELD OF AGRICULTURE, AND ASSOCIATED METHOD AND USE” (GAIAGO, priority 2022, published 2026)

Legend:
Alternaria solani = assay: in vitro 96-well micro-titration test on Alternaria solani spores; format: cell-based
Fusarium graminearum = assay: microbe, parasite or virus in culture; format: cell-based
[1] = test system: Septoria tritici (Zymoseptoria tritici); assay: in vitro 96-well micro-titration test on Septoria tritici / Zymoseptoria tritici; format: cell-based
Pythium ultimum = assay: in vitro test on P. ultimum
Description: The evaluations were performed with a 96-well micro-titration test to evaluate the in vitro fungicidal activity of each solution.
Three repetitions (wells) were carried out. The value of the concentration making it possible to inhibit the growth of each pathogen (EC50) to 50% was determined using the optical density measurement.

C[C@@H]1CC[C@@]2(OC1)O[C@H]1C[C@H]3[C@@H]4CC[C@@H]5C[C@@H](O)CC[C@]5(C)[C@H]4CC[C@]3(C)[C@H]1[C@@H]2C [smilagenin, (25R)-5beta-Spirostan-3beta-ol]
inhibition (%) of A. solani growth (Alternaria solani; 0.0064 μg/ml or ppm in water): 7.9%
inhibition (%) of A. solani growth (Alternaria solani; 0.032 μg/ml or ppm in water): 10.1%
inhibition (%) of A. solani growth (Alternaria solani; 0.16 μg/ml or ppm in water): 19.6%
inhibition (%) of A. solani growth (Alternaria solani; 0.8 μg/ml or ppm in water): 22.6%
inhibition (%) of A. solani growth (Alternaria solani; 4 μg/ml or ppm in water): 28.0%
inhibition (%) of A. solani growth (Alternaria solani; 20 μg/ml or ppm in water): 29.3%
inhibition (%) of A. solani growth (Alternaria solani; 40 μg/ml or ppm in water): 30%
inhibition of Fusarium graminearum (Fusarium graminearum; 0.0064 μg/ml or ppm): 5.00%
inhibition of Fusarium graminearum (Fusarium graminearum; 0.032 μg/ml or ppm): −2.60%
inhibition of Fusarium graminearum (Fusarium graminearum; 0.16 μg/ml or ppm): −0.80%
inhibition of Fusarium graminearum (Fusarium graminearum; 0.8 μg/ml or ppm): 2.40%
inhibition of Fusarium graminearum (Fusarium graminearum; 4 μg/ml or ppm): 1.50%
inhibition of Fusarium graminearum (Fusarium graminearum; 20 μg/ml or ppm): −8.70%
inhibition of Fusarium graminearum (Fusarium graminearum; 100 μg/ml or ppm): 2.00%
EC95 (μg/ml or ppm) (Fusarium graminearum; Fusarium graminearum, Table 9): >100 μg/ml or ppm
EC50 (Fusarium graminearum; Fusarium graminearum, read-out: EC50 (μg/ml or ppm)): > 100 µg/mL
% inhibition of pathogen growth (S. tritici) ([1]; 0.0064 μg/ml or ppm): −3.90%
% inhibition of pathogen growth (S. tritici) ([1]; 0.032 μg/ml or ppm): −2.30%
% inhibition of pathogen growth (S. tritici) ([1]; 0.16 μg/ml or ppm): −1.90%
% inhibition of pathogen growth (S. tritici) ([1]; 0.8 μg/ml or ppm): −9.50%
% inhibition of pathogen growth (S. tritici) ([1]; 4 μg/ml or ppm): 0.00%
% inhibition of pathogen growth (S. tritici) ([1]; 20 μg/ml or ppm): −2.10%
% inhibition of pathogen growth (S. tritici) ([1]; 100 μg/ml or ppm): −0.20%
EC50 ([1]; Zymoseptoria tritici, S. tritici, Table 12, read-out: EC50 (μg/ml or ppm)): > 100 µg/mL
inhibition of P. ultimum (Pythium ultimum; 0.0064 μg/ml or ppm): −6.70%
inhibition of P. ultimum (Pythium ultimum; 0.032 μg/ml or ppm): 0.00%
inhibition of P. ultimum (Pythium ultimum; 0.16 μg/ml or ppm): −0.60%
inhibition of P. ultimum (Pythium ultimum; 0.8 μg/ml or ppm): 0.10%
inhibition of P. ultimum (Pythium ultimum; 4 μg/ml or ppm): −3.40%
inhibition of P. ultimum (Pythium ultimum; 20 μg/ml or ppm): −0.10%
inhibition of P. ultimum (Pythium ultimum; 100 μg/ml or ppm): 0.00%
EC50 (Pythium ultimum; Globisporangium ultimum, read-out: EC50 (μg/ml or ppm)): > 100 µg/mL
EC95 (μg/ml or ppm) (Pythium ultimum; P. ultimum, Table 14): >100 μg/ml or ppm
